Our source for the T/C values is PubChem BioAssay AID330 (DTP/NCI, 2004).

Several values for one entry are separate records, joined by “and”; a condition that tells them apart may be missing. Identical values can stand only once. Toxic doses and inconclusive results are not listed.

The test has as its system P388 leukemia ip, CD2F1 mice, survival T/C. As to the kind of experiment: NCI In Vivo Anticancer Drug Screen. Data for tumor model P388 Leukemia (intraperitoneal) in CD2F1 (CDF1) mice. Conditions: endpoint: median survival time, higher = longer survival. An outline of the steps: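 Mice carrying the transplanted tumor received test compound or vehicle. Survival was recorded in each group, and the value is the treated-group measurement divided by that of the vehicle-treated control group.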

Where [1] appears, read: dose: 60.0 mg/kg/injection, schedule: Q01DX005 (ip), vehicle: saline with Tween-80.
Setting [2] is: dose: 12.5 mg/kg/injection, schedule: Q01DX005 (ip), vehicle: saline with Tween-80.
Setting [3] is: dose: 25.0 mg/kg/injection, schedule: Q01DX005 (ip), vehicle: saline with Tween-80.
[4] abbreviates: dose: 50.0 mg/kg/injection, schedule: Q01DX005 (ip), vehicle: saline with Tween-80.
The mark [5] stands for this setting: dose: 120.0 mg/kg/injection, schedule: Q01DX005 (ip), vehicle: saline with Tween-80.
Setting [6] is: dose: 240.0 mg/kg/injection, schedule: Q01DX005 (ip), vehicle: saline with Tween-80.
Setting [7] is: dose: 100.0 mg/kg/injection, schedule: Q01DX005 (ip), vehicle: saline with Tween-80.
Where [8] appears, read: dose: 200.0 mg/kg/injection, schedule: Q01DX005 (ip), vehicle: saline with Tween-80.
The mark [9] stands for this setting: dose: 100.0 mg/kg/injection, schedule: Q04DX003 (ip), vehicle: Klucel (hydroxypropylcellulose) (HPC).
Where [10] appears, read: dose: 200.0 mg/kg/injection, schedule: Q04DX003 (ip), vehicle: Klucel (hydroxypropylcellulose) (HPC).
Setting [11] is: dose: 400.0 mg/kg/injection, schedule: Q04DX003 (ip), vehicle: Klucel (hydroxypropylcellulose) (HPC).
The mark [12] stands for this setting: dose: 50.0 mg/kg/injection, schedule: Q01DX005 (ip), vehicle: Klucel (hydroxypropylcellulose) (HPC).
Setting [13] is: dose: 100.0 mg/kg/injection, schedule: Q01DX005 (ip), vehicle: Klucel (hydroxypropylcellulose) (HPC).
[14] abbreviates: dose: 25.0 mg/kg/injection, schedule: Q01DX009 (ip), vehicle: saline with Tween-80.
Where [15] appears, read: dose: 50.0 mg/kg/injection, schedule: Q01DX009 (ip), vehicle: saline with Tween-80.
Setting [16] is: dose: 100.0 mg/kg/injection, schedule: Q01DX009 (ip), vehicle: saline with Tween-80.
Where [17] appears, read: dose: 50.0 mg/kg/injection, schedule: Q01DX009 (ip), vehicle: saline.
Where [18] appears, read: dose: 100.0 mg/kg/injection, schedule: Q04DX003 (ip), vehicle: saline with Tween-80.
The mark [19] stands for this setting: dose: 200.0 mg/kg/injection, schedule: Q04DX003 (ip), vehicle: saline with Tween-80.
Setting [20] is: dose: 200.0 mg/kg/injection, schedule: Q01DX005 (ip), vehicle: Klucel (hydroxypropylcellulose) (HPC).
[21] abbreviates: dose: 100.0 mg/kg/injection, schedule: Q04DX002 (ip), vehicle: saline.

Take `O=C(c1ccccc1)c1c(CO[N+](=O)[O-])n([O-])c2ccccc2[n+]1=O`: the T/C was 105 % of control (dose: 15.0 mg/kg/injection, schedule: Q01DX005 (ip), vehicle: saline with Tween-80); 109 % of control (dose: 30.0 mg/kg/injection, schedule: Q01DX005 (ip), vehicle: saline with Tween-80); 104 % of control and 109 % of control under setting [1].

For the molecule `CC(C)=CC(=O)Sc1ccccc1`, the T/C under setting [2] was 101 % of control; the T/C under setting [3] is 94 % of control; the T/C under setting [4] is 102 % of control and 104 % of control.

With `CC1=C(c2ccco2)C(c2ccco2)OC1=O` (stereo unspecified), the T/C under setting [1] is 102 % of control, the T/C under setting [5] is 103 % of control and the T/C under setting [6] is 103 % of control.

With `CCOC(=O)N1CCc2cc3c(cc2C1Cc1ccc(OC)c(OC)c1COC(C)=O)OCO3` (stereo unspecified), the T/C under setting [4] was 100 % of control, the T/C under setting [7] is 100 % of control and the T/C under setting [8] is 89 % of control.

Regarding `CCN(CC)CCSc1nnc(N)s1`, the T/C is, setting by setting: (dose: 50.0 mg/kg/injection, schedule: Q01DX001 (ip), vehicle: saline) 103 % of control; (dose: 100.0 mg/kg/injection, schedule: Q01DX001 (ip), vehicle: saline) 103 % of control; (dose: 200.0 mg/kg/injection, schedule: Q01DX001 (ip), vehicle: saline) 99 % of control.

For `Cc1ccc(NC(=O)c2cc3ccccc3c(N=Nc3ccccc3O)c2O)c(C)c1`, the T/C under setting [1] was 94 % of control, the T/C under setting [5] is 109 % of control and the T/C under setting [6] was 97 % of control.

For the molecule `CC(C)N1C(=O)c2ccccc2S1(Cl)c1ccccc1` (stereo unspecified), the T/C under setting [9] is 101 % of control, the T/C under setting [10] was 98 % of control and the T/C under setting [11] is 98 % of control.

For the molecule `CSC(=O)NC(=O)NC(=O)c1ccc([N+](=O)[O-])cc1`, the T/C is, setting by setting: under setting [12], 91 % of control; under setting [13], 91 % of control.

Consider `COc1ccc(C(O)(CS(C)=O)c2cccs2)cc1` (stereo unspecified), for which the T/C is, setting by setting: (dose: 12.5 mg/kg/injection, schedule: Q01DX009 (ip), vehicle: saline with Tween-80) 94 % of control and 97 % of control; under setting [14], 100 % of control and 102 % of control; under setting [15], 110 % of control and 96 % of control; under setting [16], 91 % of control and 96 % of control.

Take `Nc1cc(I)c2cccnc2c1O`: the T/C (dose: 6.25 mg/kg/injection, schedule: Q01DX009 (ip), vehicle: saline) was 119 % of control; the T/C (dose: 12.5 mg/kg/injection, schedule: Q01DX009 (ip), vehicle: saline) is 115 % of control; the T/C (dose: 16.0 mg/kg/injection, schedule: Q01DX009 (ip), vehicle: saline) was 98 % of control; the T/C (dose: 25.0 mg/kg/injection, schedule: Q01DX009 (ip), vehicle: saline) is 92 % of control and 98 % of control; the T/C (dose: 35.0 mg/kg/injection, schedule: Q01DX009 (ip), vehicle: saline) is 107 % of control; the T/C under setting [17] is 119 % of control.

On to `CN(C(=O)C1(C)OC1c1ccccc1)c1ccccc1` (stereo unspecified), for which the T/C is 96 % of control under setting [9], 100 % of control under setting [10] and 94 % of control under setting [11].

For `CCCCOc1cc([N+](=O)[O-])ccc1CO`, the T/C is, setting by setting: under setting [18], 100 % of control; under setting [19], 100 % of control; (dose: 400.0 mg/kg/injection, schedule: Q04DX003 (ip), vehicle: saline with Tween-80) 95 % of control.

With `C=C(C)CC1(C)CC(=O)C(C)=C(C)C1=O` (stereo unspecified), the T/C is 110 % of control (dose: 25.0 mg/kg/injection, schedule: Q04DX003 (ip), vehicle: Klucel (hydroxypropylcellulose) (HPC)); 105 % of control (dose: 50.0 mg/kg/injection, schedule: Q04DX003 (ip), vehicle: Klucel (hydroxypropylcellulose) (HPC)); 100 % of control under setting [9].

Turning to `O=C(NCc1ccccc1)N1CCN(c2ccccc2)C1=O`, the T/C is 103 % of control and 88 % of control under setting [14]; 98 % of control and 89 % of control and 96 % of control under setting [15]; 97 % of control under setting [16]; 98 % of control and 89 % of control and 93 % of control (dose: 200.0 mg/kg/injection, schedule: Q01DX009 (ip), vehicle: saline with Tween-80).

Turning to `Cc1nnc2n1-c1ccc(Cl)cc1C(c1ccccc1)=[N+]([O-])C2`, the T/C reads like this: under setting [15], 103 % of control; under setting [16], 104 % of control.

Turning to `O=C1OC(=O)c2ccc3c4c(ccc1c24)C(=O)OC3=O`, the T/C is 104 % of control under setting [4] and 105 % of control under setting [7].

With `Nc1nc2c(c(=O)[nH]1)CN(CCCN1CCN(CCCN3CNc4nc(N)[nH]c(=O)c4C3)CC1)CN2`, the T/C runs as follows: under setting [12], 94 % of control; under setting [13], 99 % of control; under setting [20], 91 % of control.

With `CN1CCN(C(=O)/C(=C/c2ccccc2)NC(=O)c2ccccc2)CC1`, the T/C under setting [4] is 96 % of control, the T/C under setting [7] was 95 % of control and the T/C under setting [8] was 87 % of control.

In the case of `Cc1ccc2c(NCCCCCCCCNc3c4ccccc4nc4c(C)c(C)ccc34)c3ccccc3nc2c1C`, for the setting “dose: 10.0 mg/kg/injection, schedule: Q01DX009 (ip), vehicle: other”, the T/C was 156 % of control.

Consider `COc1cccc2c1C(=N)c1c(O)c3c(c(O)c1C2=O)CC(O)(C(=O)CO)CC3OC1CC(N2CCOCC2)C(O)C(C)O1` (stereo unspecified), for which the T/C is 101 % of control and 104 % of control and 98 % of control (dose: 0.13 mg/kg/injection, schedule: Q04DX003 (ip), vehicle: water); 101 % of control and 108 % of control and 116 % of control (dose: 0.25 mg/kg/injection, schedule: Q04DX003 (ip), vehicle: water); 104 % of control and 107 % of control (dose: 0.5 mg/kg/injection, schedule: Q04DX003 (ip), vehicle: water); 105 % of control (dose: 0.78 mg/kg/injection, schedule: Q04DX003 (ip), vehicle: distilled water + Tween-80); 99 % of control and 104 % of control and 107 % of control (dose: 1.0 mg/kg/injection, schedule: Q04DX003 (ip), vehicle: water); 101 % of control (dose: 1.56 mg/kg/injection, schedule: Q04DX003 (ip), vehicle: distilled water + Tween-80). For the same molecule, the T/C (dose: 3.12 mg/kg/injection, schedule: Q04DX003 (ip), vehicle: distilled water + Tween-80) was 99 % of control.

For `C/C(=N\NC(=S)N1CCC(c2ccccc2)CC1)c1ccccn1`, the T/C (dose: 100.0 mg/kg/injection, schedule: Q04DX003 (ip), vehicle: saline) is 100 % of control and the T/C (dose: 200.0 mg/kg/injection, schedule: Q04DX003 (ip), vehicle: saline) is 101 % of control.

As to `Nc1[nH]c(=O)ncc1-c1ccc([N+](=O)[O-])cc1`, the T/C was 95 % of control under setting [2]; 97 % of control under setting [3]; 101 % of control and 105 % of control under setting [4].

`N#CC(C#N)=C(C#N)C#N`: the T/C under setting [18] was 103 % of control and the T/C under setting [19] was 103 % of control.

Regarding `CCCCn1c(C)nc2c(cnn2C)c1=O`, the T/C is 114 % of control under setting [12], 101 % of control under setting [13] and 108 % of control under setting [20].

On to `OCCN(CCO)c1nc(N(CCO)CCO)c(N2CCCCC2)c(N2CCCCC2)n1`, for which the T/C is, setting by setting: under setting [21], 104 % of control; (dose: 200.0 mg/kg/injection, schedule: Q04DX002 (ip), vehicle: saline) 105 % of control; (dose: 400.0 mg/kg/injection, schedule: Q04DX002 (ip), vehicle: saline) 98 % of control.

Regarding `CCOC(=O)C[n+]1ccc2c([nH]c3cc(OC)ccc32)c1C`, the T/C was 97 % of control under setting [17]; 112 % of control (dose: 100.0 mg/kg/injection, schedule: Q01DX009 (ip), vehicle: saline); 110 % of control (dose: 200.0 mg/kg/injection, schedule: Q01DX009 (ip), vehicle: saline).

As to `Cc1ccc(O)c(C(NCCO)c2ccccc2)c1` (stereo unspecified), under setting [21], the T/C was 102 % of control.
